# Assay results from patent US6344219B1, “Chinese drug composition for treatment of peptic ulcer and preparation thereof” (priority 1995, dated 2002).
# What was measured:
# [1] = tested on: stress ulcer of rats induced by water soaking; assay: Effect to stress ulcer (Takagi's method, water soaking); assay type: in vivo, Rats(SD); settings: 100 mg/kg qd × 2
# Protocol: The model was established following Takagi's method. Takagi, et al., The Effects of Drugs on the production and Recovery Processes of the Stress Ulcer, 18:9-18 (1968); and Takagi et al., A New Method For The Production of Chronic Gastric Ulcer in Rats and The Effect of Several Drugs on its Healing, Japan J. Pharmacol Japan J. Pharmacol 19:418-426 (1969). Fifty rats, 159+13 g, male and female half and half, were randomly divided into five groups according to sex and weight and were administered with drugs daily twice, once both in the morning and afternoon for two days. From the beginning of the experiments, food was abstained but water was freely fed. One hour after the last administration, rats were bound on a board and were soaked in a thermostatic flowing water bath at […] for 18 hr then were executed by decapitation. Take out the stomach by abdominal section and ligate the pylorus first then inject 10 ml of 1% formaldehyde solution through cardia of stomach and ligate the cardia. After formalizing the stomach in 1% formaldehyde solution for 10 min, the stomach was cut along the greater curvature with scissor, rinse with normal saline solution for three times and absorb with filter paper, then flatten it on a glass plate and examine the degree of mucosa ulcer and count the number using magnifier. […]
# pyloric ligation ulcer = assay: Effect to the ulcer of pyloric ligation (Shay's method); assay type: in vivo, Rats(SD); settings: rats; dose 200
# Protocol: The experiment is conducted following Shay's method. Fifty rats, 190+20 g, male and female half and half, were randomly divided into five groups according to weight and sex and were administered as 1-1 for three days. Food was abstained but water was freely fed before 48 hr of the operation. After 2 hr of the last administration, operation of pyloric ligation was conducted then both food and water were abstained. After 48 hr the rats were executed and their gastric juice was collected for measuring the volume, and determining the free acid, total acid and pepsin following Metle's method.
# [2] = tested on: chronic gastric ulcer caused by acetic acid burn; assay: Chronic gastric ulcer of rats caused by acetic acid burn (adapted Takagi's method); assay type: in vivo, Rats(SD); settings: 200 mg/kg × 12 day ig qd
# Protocol: The experiment was conducted using adapted Takagi's method. Fifty rats, 165+15 g, male and female half and half, after abstaining food without abstaining water for 24 hr, were primary anesthetized with ether and their skin were sterilized as regular method. After abdominal section the stomach was gently pulled out. A small glass tube with 0.5 cm inner diameter and 3 cm length was inserted into the stomach near the lesser curvature stomach gland of pylorus using middle finger to resist against the opposite stomach wall. 0.1 ml acetic acid was injected into stomach through the glass tube. After 30 sec counting with stopwatch, acetic acid was sucked out and the stomach was rinsed with sterilized normal saline for three times. Remove out the glass tube and absorb the normal saline on its external surface with sterilized filter paper the stomach was put into the abdomen then sew up the wound and sterilize. The rats was randomly divided into 5 groups according to sex and weight on the second day of operation. The rats were administered with drug ig qd×12 day, after abstaining food overnight then were executed by decapitation. The ulcer volumes were measured using the method of injection ink with a micro syringe.
# [3] = tested on: gastric ulcer induced by Reserpine; assay: Gastric ulcer of rats induced by Reserpine; assay type: in vivo, Rats(SD); settings: 200.0 mg/kg ig once daily for three days, Reserpine 5 mg/kg sc
# Protocol: Fifty rats, 180±18 g, male and female half and half, were divided into five groups and were treated with drug ig once daily for three days. After abstaining food for 24 hr Reserpine 5 mg/kg was injected subcutaneously. The rats were executed by decapitation after 18 hr and the gastric ulcer was examined as the same method of 1-1.
# [4] = tested on: ulcer induced by Histamine; assay: Ulcer of mice induced by Histamine; assay type: in vivo, Mice(ICR); settings: 200 mg/kg bid × 2 ig, Histamine 80 mg/kg ip
# Protocol: Forty mice, male 23±2 g, were divided into five groups, and were administrated once both in the morning and afternoon of everyday by ig. Mice were abstained to feed food for 24 hr except water, then administered Histamine 80 mg/kg, ip, after abstaining food for 8 hr were executed. Take out the stomachs and examine ulcer index using the same method as 1-1.
smiles,measurement,setting,value
"CNC(=C[N+](=O)[O-])NCCSCc1ccc(CN(C)C)o1.Cl [Ranitidine, Ranitidine hydrochloride]",rate of inhibition (%),[1],41.5%
same,ulcer index (x ± SD),[1],2.14 ± 0.46
same,ulcer index,pyloric ligation ulcer,1.22 ± 1.44
same,rate of inhibition (%),[2],50.7%
same,"ulcer volume (μl, × ± SD)",[2],1.72 ± 1.46 µL
same,rate of inhibition (%),[3],78.2%
same,ulcer index (x ± SD),[3],7.6 ± 2.0
same,rate of inhibition (%),[4],87.8%
same,ulcer index (x ± SD),[4],1.4 ± 3.5
